Earlier results on one compound are cited in patent publication US20240335414A1, “SPECIALIZED COMBINATIONS FOR MENTAL DISORDERS OR MENTAL ENHANCEMENT” (TACTOGEN INC, priority 2021, published 2024).

For data set [1] the following is noted: MDMA arm, first of two Phase 3 trials, MDMA-assisted therapy.
For data set [2] the following is noted: pooled Phase 2 clinical trials.
Data set [3] concerns the target 5-HT1B (Homo sapiens, UniProt P28222).
For data set [4], the system named is neuritogenesis.

Molecules are shown by their SMILES.

5-HT1B, sequence (P28222 whole entry, species assumed): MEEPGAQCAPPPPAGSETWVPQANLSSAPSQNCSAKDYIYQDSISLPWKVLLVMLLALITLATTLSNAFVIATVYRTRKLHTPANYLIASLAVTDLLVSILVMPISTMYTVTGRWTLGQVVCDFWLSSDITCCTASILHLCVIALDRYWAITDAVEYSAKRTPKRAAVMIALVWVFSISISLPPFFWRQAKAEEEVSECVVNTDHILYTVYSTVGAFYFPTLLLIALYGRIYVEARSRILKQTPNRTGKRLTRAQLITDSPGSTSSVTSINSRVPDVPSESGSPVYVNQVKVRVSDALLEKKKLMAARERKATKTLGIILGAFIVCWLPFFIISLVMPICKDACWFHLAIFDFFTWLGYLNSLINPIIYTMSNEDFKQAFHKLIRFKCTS

Consider `CNC(C)Cc1ccc2c(c1)OCO2` (stereo not drawn) [MDMA, 3,4-methylenedioxymethamphetamine], for which the “participants no longer diagnosable with PTSD” value in data set [1] is recorded as “two-thirds”. In addition, the “nausea, proportion of participants” value in data set [2] (29 of 72 participants) is recorded as 40.3%. Besides, in data set [2] (52 of 72 participants), the “anxiety, proportion of participants” value is 72.2%. The “binding to the 5-HT1B” value in data set [3] is recorded as “does not bind”. In addition, in data set [4] (read-out: EC50 for promoting neuritogenesis), the EC50 (commonly the concentration that produces a half-maximal response) was 7.41 nM. In addition, in data set [4] (relative to ketamine), the “Emax for promoting neuritogenesis, compared with ketamine” value is “approximately twice that of ketamine”.
